{"source": "patent US20090169478A1", "about": "“In Vivo Imaging and Therapy with Magnetic Nanoparticle Conjugates” (priority 2005, published 2009)", "key": {"rats": {"tested_on": "rats", "details": "rat, in vivo, iv, 250 mg/kg; cited from earlier work"}, "[1]": {"tested_on": "MDA-MB-435S.luc breast cancer cells", "assay": "Effect of spacer molecule on cellular iron uptake (Example 27)", "format": "cell-based, human", "details": "iron incubation 1 mg/ml, 3 hours; for iron accumulation in the breast cancer cells in the presence of LHRH: free LHRH present", "procedure": "The effect of a spacer molecule on cellular uptake was tested in vitro on MDA-MB-435S.luc breast cancer cells, which express LHRH receptors. Iron incubation was conducted at 1 mg/ml for different conditions for 3 hours. Accumulation in the breast cancer cells was 82.3±25 pg/cell for SPIONs, 165±16 pg/cell for LHRH−SPIONs, and 223±16 pg/cell with LHRH-Glu-SPION. […] These observations support our hypothesis that iron uptake was driven by receptor-mediated endocytosis."}, "[2]": {"tested_on": "MDA-MB-435S.luc tumor bearing mice", "assay": "Treatment of tumor-xenografted mice (Example 29)", "format": "in vivo, mouse", "details": "for tumor weights at necropsy: tail vein injections at 3, 4 and 5 weeks post-xenograft, 28 days after the start of treatment", "from_the_text": "Mice were sacrificed and necropsied 6 weeks post-xenografts. […] Bodyweights, liver weights, and gonadal weights remained stable during all treatments. The breast cancer tumors and metastases were specifically targeted and destroyed by LHRH-conjugated SPIONs carrying a toxin (hecate). The same particles may be used for simultaneous treatment and imaging, e.g., for directly monitoring treatment response in cancer patients."}, "[3]": {"tested_on": "mice bearing the MDA-MB-435S.luc tumors", "details": "after sequential injections", "from_the_text": "See FIGS. 3(a) through (d), showing photographs of Prussian Blue-stained sections from lungs of mice bearing the MDA-MB-435S.luc tumors. FIG. 3(a) depicts a saline-injected control. FIG. 3(b) depicts injection with unconjugated SPIONs. FIGS. 3 (c) and (d) depict injection with conjugated LHRH−SPIONs."}, "[4]": {"tested_on": "MDA-MB-435S.luc xenograft-bearing mouse", "details": "250 mg/kg tail vein, 20 hours, 6 mice per group", "procedure": "The mice were euthanized 20 hours after the injections; and their tumors, lungs, liver, heart, kidney, pancreas, spleen, and gonads were collected. Portions of the organs and tumors were embedded in paraffin and tested for iron using Prussian blue staining."}, "tumor-free mice": {"tested_on": "tumor-free mice", "details": "mouse, in vivo, iv", "procedure": "(§1) Targeting Human Breast Cancer Xenograft and their Metastases with LHRH−SPIONs in vivo. To evaluate the distribution of LHRH−SPIONs and unconjugated SPIONs in vivo, female nude mice with human breast MDA-MB-435S.luc xenograft as described above were injected intravenously with 250 mg/kg LHRH-SPIONs or with unconjugated SPIONs, 35 days after tumor inoculation. The mice were sacrificed 20 h after injection, and the organs and tumors were collected, weighed and analyzed for iron and luciferase. Portions of the organs and tumors were homogenized and their iron content determined spectrophotometrically after reaction with Prussian blue, while other portions were analyzed after fixation by transmission electron microscopy.\n(§2) Statistical analyses were conducted on raw data by ANOVA. We obtained the ranks of the data, and then conducted a Kruskal-Wallis test. Differences were considered significant at the P<0.05 level. Rank data and variance stabilizing transformations were included."}, "human macrophages": {"tested_on": "human macrophages", "assay": "In vitro macrophage uptake of nanoparticles (Example 26)", "format": "cell-based", "details": "iron concentration of 20 μg/mL"}, "[5]": {"tested_on": "male nude mice bearing tumors from human prostate cancer line PC-3.luc", "details": "mouse, in vivo", "excerpt": "This experiment employed male nude mice bearing tumors from human prostate cancer line PC-3.luc (with luciferase reporter)."}, "[6]": {"assay": "Surface charge of nanoparticles", "format": "physicochemical", "from_the_text": "The magnetic nanoparticle preferably comprises primarily Fe3O4, rather than the Fe2O3 that has been used for most prior magnetic nanoparticles. The Fe3O4 particle surface contains amine groups that initially prevent agglomeration, eliminating the need for a coating such as a dextran or other intermediate coatings such as have been used in most prior magnetic nanoparticles. […] The only “coating” that need be used is the targeting agent itself, one with specificity for the target cells (or a combination of targeting agent and toxin or drug). The targeting agent, and the optional toxin or drug are covalently linked to the nanoparticle via amide linkages formed by reaction with the amine groups on the particles. The targeting agent may, for example, be a hormone, ligand, or antibody, or a fragment thereof to assist in selectively directing the particles to the cells of interest and facilitating their intracellular up-take and accumulation. The optional toxin or drug may, for example, be a lytic peptide, other peptide toxin, or other toxin or drug. Our studies have shown that reducing the amount of ligand/coating on the nanoparticles increases macrophage recognition and incorporation. By optionally distancing the ligand from the nanoparticle surface through a spacer molecule, ligand specificity may be retained while increasing cellular uptake. […]"}, "[7]": {"tested_on": "MDA-MB-435S.luc xenograft-bearing mouse", "assay": "Iron content of tissue homogenates, tumor and kidney (Example 9)", "format": "in vivo", "details": "250 mg/kg tail vein, 20 hours", "procedure": "Portions of the tissue samples from Example 8 were homogenized, and iron content was determined in calorimetric assays. The amounts of accumulated iron per gram total organ mass could thus be determined. […] When nanoparticles alone were injected, the iron content in tumors was only about 4%."}, "[8]": {"tested_on": "Chinese Hamster Ovary cells; mouse Sertoli cells", "assay": "In vitro uptake in cell lines that do not express the appropriate receptors", "format": "cell-based", "details": "listed as LHRH−SPIONs", "procedure": "(§3) LHRH−SPIONs and βCG/LH-SPIONs were tested on breast cancer cells MDA-MB-435S, on Chinese Hamster Ovary cells, on rat LH-receptor-transfected Chinese Hamster Ovary cells, and on mouse Sertoli cells. Experiments were conducted in the presence of LHRH, βCG, or neither. […] In addition, we observed that co-incubation with the free peptide ligands blocked the receptors that otherwise enabled the ligand-conjugated SPIONs to enter cells through receptor-mediated endocytosis. The uptake was then primarily via phagocytosis or pinocytosis at a low rate, similar to that for unconjugated SPIONs. The observed uptake was specific; the quantity of iron nanoparticles within the cells was substantially higher for receptor-mediated uptake."}, "[9]": {"tested_on": "tumor-xenograft-bearing mice", "details": "2, 10, 30 and 60 days after injection", "procedure": "Pharmacokinetics of iron nanoparticles. To determine the pharmacokinetic profile of SPIONs and their conjugates, 4 groups of tumor-xenograft-bearing mice (n=10) are injected with the various concentrations of conjugated SPIONs as determined above. A fifth group serves as saline control. The mice are housed for 2, 10, 30, and 60 days after injection, and are then sacrificed to determine iron content in peripheral tissues. This experiment uses 50 female nude mice, and will establish the excretion profile of LHRH−SPIONs over a period of 60 days."}, "[10]": {"tested_on": "female nude mice with human breast MDA-MB-435S.luc xenograft", "details": "mouse, in vivo", "procedure": "as §1\nThe design of this cancer model was such that all tumor cells expressed luciferase, meaning that the presence of luciferase was inherently synonymous with the presence of cancer cells. By contrast, the presence of iron was not inherently synonymous with the presence of cancer cells. The goal of this experiment was to test the efficacy of the novel system at specifically delivering iron to cancer cells.\nas §2"}, "[11]": {"tested_on": "breast cancer cells MDA-MB-435S", "assay": "In vitro uptake of ligand-conjugated SPIONs (Example 10)", "format": "cell-based, human", "details": "MDA-MB-435S cells, no free ligand", "procedure": "as §3"}, "[12]": {"tested_on": "MCF-7, MDA-MB-435S.luc and TM4 cell lines", "assay": "In vitro toxicity of constructs on three cell lines, cell line not given", "format": "cell-based", "details": "FIG. 4", "from_the_text": "FIG. 4 depicts toxicity measurements of different constructs on three cell lines.\nPancreatic, prostate, breast, and lung cancers may be targeted by LHRH, linked to a toxin or drug such as a lytic peptide and to a SPION. In one study we tested the use of LHRH−SPIONs conjugated to a toxin or drug for both treatment and imaging of tumors and metastases. A particle with a ligand and a toxin (drug) may be made in at least three different configurations: ligand-toxin(drug)-SPION, ligand-SPION-toxin(drug), or toxin(drug)-ligand-SPION. […] (The potential construct SPION-LHRH-Hecate was not tested in these experiments.) See FIG. 4. […] Based on the results reported above, the introduction of a spacer is expected to improve ligand-receptor interaction; and, in the case of a lytic peptide, to improve the peptide-membrane interaction. The spacer may also improve plasma stability of the particles."}}, "note": "“Also recorded” adds a separate entry of the source. Non-standard residues stand in square brackets, D forms with d. Residues, ends and D or L forms follow the SMILES beside them. No end group written: not given here. pGlu = O=C1CC[C@@H](C(=O)O)N1"}
{"molecule": "iron oxide nanoparticles", "values": [{"measurement": "adverse effects", "setting": "rats", "value": "no adverse effects"}]}
{"molecule": "LHRH-Glu-SPION: LHRH bound to SPION through a glutaric acid spacer (Examples 5 and 7) (QHWSYGLRPG; ends and bridges not checked; also: bound to SPION through a glutaric acid spacer, site not given here; UniProt P01148 24-33, looked up)", "values": [{"measurement": "iron accumulation in the breast cancer cells", "setting": "[1]", "value": "223±16", "unit": "pg/cell"}, {"measurement": "iron accumulation in the breast cancer cells in the presence of LHRH", "setting": "[1]", "value": "123±25", "unit": "pg/cell"}]}
{"molecule": "CC(C)C[C@H](NC(=O)[C@H](C)NC(=O)[C@H](CCCCN)NC(=O)[C@H](CCCCN)NC(=O)[C@H](CC(C)C)NC(=O)[C@H](C)NC(=O)[C@H](CCCCN)NC(=O)[C@H](CCCCN)NC(=O)[C@H](CC(C)C)NC(=O)[C@H](CCCCN)NC(=O)[C@H](CCCCN)NC(=O)[C@H](CC(C)C)NC(=O)[C@H](C)NC(=O)[C@H](CCCCN)NC(=O)[C@H](CCCCN)NC(=O)[C@H](CC(C)C)NC(=O)[C@H](C)NC(=O)[C@H](CCCCN)NC(=O)[C@H](CC(C)C)NC(=O)[C@H](C)NC(=O)[C@H](CC(C)C)NC(=O)[C@H](C)NC(=O)[C@H](Cc1ccccc1)NC(=O)CNC(=O)[C@@H]1CCCN1C(=O)[C@H](CCCNC(=N)N)NC(=O)[C@H](CC(C)C)NC(=O)CNC(=O)[C@H](Cc1ccc(O)cc1)NC(=O)[C@H](CO)NC(=O)[C@H](Cc1c[nH]c2ccccc12)NC(=O)[C@H](Cc1c[nH]cn1)NC(=O)[C@@H]1CCC(=O)N1)C(=O)O", "note": "[LHRH-Hecate] ([pGlu]HWSYGLRPGFALALKALKKALKKLKKALKKAL-OH; C-terminus assumed)", "values": [{"measurement": "change of tumor volumes (and tumor weights)", "setting": "[2]; during and after treatment", "value": "arrested at the start of treatment and then diminished significantly; also recorded: decreased"}, {"measurement": "lymph node metastases, assayed by luciferase activity at necropsy", "setting": "[2]; mouse, in vivo", "value": "destroyed"}, {"measurement": "tumor weights at necropsy", "setting": "[2]", "value": "0.07 ± 0.04", "unit": "g"}]}
{"molecule": "LHRH−SPION: Fe3O4 magnetite nanoparticles covalently bound to LHRH by carbodiimide reaction (Example 3)", "values": [{"measurement": "retention of nanoparticles inside the target cells", "setting": "[3]", "value": "at least four weeks"}, {"measurement": "tumors testing positive for iron (Prussian blue staining)", "setting": "[4]", "value": "Four of six"}, {"measurement": "percentage of iron accumulating in lung", "setting": "tumor-free mice", "value": 0.9, "unit": "%"}, {"measurement": "difference in macrophage uptake, SPIONs versus LHRH-SPIONs", "setting": "human macrophages", "value": "thirteen-fold"}, {"measurement": "fraction taken up by macrophages", "setting": "human macrophages", "value": "about 5%"}, {"measurement": "accumulation in tumor tissue compared to normal (kidney) tissue", "setting": "[5]", "value": "preferentially accumulate in tumor tissue"}, {"measurement": "charge of nanoparticles (in words)", "setting": "[6]", "value": "almost neutral"}, {"measurement": "tumor weights at necropsy", "setting": "[2]", "value": "0.24 ± 0.09", "unit": "g"}, {"measurement": "iron located in the tumor (estimate of iron content in tumor and kidney)", "setting": "[7]", "value": "up to 70%"}, {"measurement": "ligand-mediated uptake in cell lines that did not express the appropriate receptors", "setting": "[8]", "value": "did not bind and accumulate; also recorded: substantially lower"}, {"measurement": "predicted depletion of iron from tumor and metastatic tissues", "setting": "[9]", "value": "slower depletion"}, {"measurement": "predicted iron content in kidney, liver and spleen over time", "setting": "[9]", "value": "decrease rather rapidly with time"}, {"measurement": "fraction of injected particles accumulated in primary tumors and metastases", "setting": "[10]", "value": "up to 60%"}, {"measurement": "relation of level accumulated in the lungs to metastatic load (luciferase activity)", "setting": "[10]", "value": "linear function of the metastatic load"}, {"measurement": "percentage of iron accumulating in kidney", "setting": "[10]; iv, 250 mg/kg", "value": 3.3, "unit": "%"}, {"measurement": "percentage of iron accumulating in lung", "setting": "[10]; iv, 250 mg/kg", "value": 22.2, "unit": "%"}, {"measurement": "observed uptake", "setting": "[11]", "value": 452, "unit": "pg Fe/cell"}, {"measurement": "iron accumulation in the breast cancer cells", "setting": "[1]", "value": "165±16", "unit": "pg/cell"}, {"measurement": "iron accumulation in the breast cancer cells in the presence of LHRH", "setting": "[1]", "value": "106±26", "unit": "pg/cell"}, {"measurement": "toxicity", "setting": "[12]", "value": "not toxic"}]}
